Read-outs that look alike come from different tables or passages of the source.

The assay addresses T1, hROMK (hKir1.1) (Homo sapiens, UniProt P48048).
T1 construct: expressed in transfected cells
T1 sequence (P48048 1-391): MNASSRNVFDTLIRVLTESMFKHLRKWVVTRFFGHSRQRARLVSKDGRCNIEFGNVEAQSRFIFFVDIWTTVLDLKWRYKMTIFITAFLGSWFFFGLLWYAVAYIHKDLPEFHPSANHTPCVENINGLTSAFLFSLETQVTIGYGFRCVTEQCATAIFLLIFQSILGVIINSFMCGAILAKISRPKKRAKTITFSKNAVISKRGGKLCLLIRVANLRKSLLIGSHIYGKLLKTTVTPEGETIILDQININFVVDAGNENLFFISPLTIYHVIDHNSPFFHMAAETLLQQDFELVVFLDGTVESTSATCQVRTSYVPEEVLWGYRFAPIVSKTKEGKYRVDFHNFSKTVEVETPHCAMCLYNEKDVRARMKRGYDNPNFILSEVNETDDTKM
In words: Thallium Flux Assay. Format: cell-based. As to the method:
Cell Culture Conditions- HEK293 cells stably expressing hROMK (hKir1.1) were grown at 37°C in a 10%CO2 humidified incubator in complete growth media: Dulbecco's Modified Eagle Medium supplemented with non-essential amino acids, Penicillin/Streptomycin/Glutamine, G418 and FBS. At >80% confluency, aspirate the media from the flask and rinse with 10 mL Calcium/Magnesium-free PBS. […] To dislodge the cell, gently bang the side of the flask with your hand. Triturate the cells completely and then transfer the cells to 25 mL complete media. Centrifuge at 1,500 rpm for 6 min followed by resuspension in complete growth media and determine cell concentration. […] Under ideal growth conditions and appropriate tissue culture practices, this cell line is stable for 40-45 passages.
• FluxOR™ Reagent (Component A) • FluxOR™ Assay Buffer (Component B) - 10X Concentrate • PowerLoad™ Concentrate (Component C) - 100X Concentrate • Probenecid (Component D) - Lyophilized sample is kept at -20°C. Water soluble, 100X after solubilization in 1 mL water. […] Store at 4°C. • Thallium sulfate (Tl2SO4) Concentrate (Component G) - 50 mM in water. Store at 4°C • DMSO (dimethyl sulfoxide, Component H) - 1 mL (100%)
• 1000X FluxOR™ Reagent: Reconstitute a vial of component A in 100 µl DMSO; Mix well; Store 10 µl aliquots at -20°C • 1X FluxOR™ Assay Buffer: Dilute Component B 10-fold with water; Adjust pH to 7.4 with Hepes/NaOH; Filter and store at 4°C • Probenecid/Assay Buffer: 100 mL of 1X FluxOR™ Assay Buffer; 1 mL of reconstituted component D; Store at 4°C • Loading Buffer (per microplate): 10 µl 1000X FluxOR™ Reagent; 100 µl component C; 10 mL Probenecid/Assay Buffer • Compound Buffer (per microplate): 20 mL Probenecid/Assay Buffer; 0.3 mM ouabain (10 mM ouabain in water can be stored in amber bottle/aluminum foil at room temperature); Test compound • 1X FluxOR™Chloride-Free Buffer: Prepare 1X working solution in water. Can be stored at room temperature • Stimulant Buffer (prepared at 5X final concentration in 1X FluxOR™Chloride-Free Buffer): 7.5 mM Thallium sulfate and 0.75 mM Potassium sulfate (to give a final assay concentration of 3 mM Thallium/ 0.3 mM Potassium). Store at 4°C when not in use. If kept sterile, this solution is good for months.
Assay protocol- The ROMK channel functional thallium flux assay is performed in 384 wells, using the FLIPR-Tetra instrument. HEK-hKir1.1 cells are seeded in Poly-D-Lysine microplates and kept in a 37°C-10%CO2 incubator overnight. On the day of the experiment, the growth media is replaced with the FluxOR™ reagent loading buffer and incubated, protected from light, at ambient temperature (23-25°C) for 90 min. The loading buffer is replaced with assay buffer ± test compound followed by 30 min incubation at ambient temperature, where the Thallium/Potassium stimulant is added to the microplate.
• 1. Seed HEK-hKir1.1 cells (50 µl at 20,000 cells/well) in 384-well PDL coated Microplates • 2. Allow cells to adhere overnight in humidified 37°C/10%CO2 incubator • 3. Completely remove cell growth media from microplate and replace with 25 µl loading buffer • 4. Incubate Microplate at room temperature, protected form light, for 90 min • 5. Remove loading buffer and replace with 25 µl 1x Assay Buffer ± test compound. • 6. Incubate microplate at room temperature, protected form light, for 30 min • 7. […] Excitation = 400 nm, Emission = 460 & 580 nm. Collect data for ∼ 10 min.
Data Calculation- The fluorescence intensity of wells containing 3 µM of a standard control ROMK inhibitor of the present invention is used to define the ROMK-sensitive component of thallium flux. Fluorescence in the presence of test compounds is normalized to control values to provide % fluorescence change.

[1] abbreviates: HEK293 cells stably expressing hROMK (hKir1.1), FLIPR-Tetra, read-out: Thallium Flux IC50.

Where the note is “Thallium Flux IC50”, `Cc1c([C@@H]2CN3CCN(C(=O)Cc4ccc(-n5cnnn5)nc4)C[C@@H]3CO2)ccc2c1COC2=O` [Example 23] showed an IC50 of 0.07 µM.

For `Cc1c([C@H]2CN3CCN(C(=O)Cc4ccc(-n5cnnn5)nc4)C[C@@H]3CO2)ccc2c1COC2=O` [Example 24, 4-methyl-5-[(3S,9aR)-8-{[6-(1H-tetrazol-1-yl)pyridin-3-yl]acetyl}octahydropyrazino[2,1-c][1,4]oxazin-3-yl]-2-benzofuran-1(3H)-one], the IC50 (Thallium Flux IC50) was 0.16 µM.

In the case of `O=C1OCc2cc([C@@H]3CN4CCN(C(=O)Cc5ccc(-n6cnnn6)cn5)C[C@H]4CO3)ccc21` [Example 27, 5-[(3R,9aS)-8-{[5-(1H-tetrazol-1-yl)pyridin-2-yl]acetyl}octahydropyrazino[2,1-c][1,4]oxazin-3-yl]-2-benzofuran-1(3H)-one], the IC50 under setting [1] came to 0.1 µM.

With `O=C1OCc2cc([C@H]3CN4CCN(C(=O)Cc5ccc(-n6cnnn6)cn5)C[C@H]4CO3)ccc21` [Example 28, 5-[(3S,9aS)-8-{[5-(1H-tetrazol-1-yl)pyridin-2-yl]acetyl}octahydropyrazino[2,1-c][1,4]oxazin-3-yl]-2-benzofuran-1(3H)-one], the IC50 under setting [1] came out at 0.18 µM.

Regarding `Cc1c([C@H]2CN3CCN(C(=O)Cc4ccc(-n5cnnn5)cn4)C[C@H]3CO2)ccc2c1COC2=O` [Example 29, 4-methyl-5-[(3S,9aS)-8-{[5-(1H-tetrazol-1-yl)pyridin-2-yl]acetyl}octahydropyrazino[2,1-c][1,4]oxazin-3-yl]-2-benzofuran-1(3H)-one], inhibition (Thallium Flux IC50) was half-maximal at 0.11 µM (IC50).

For `Cc1nc(-n2cnnn2)ccc1CC(=O)N1CCN2C[C@@H](c3ccc4c(c3)CCOC4=O)OC[C@@H]2C1` [Example 30, 6-[(3R,9aS)-8-{[2-methyl-6-(1H-tetrazol-1-yl)pyridin-3-yl]acetyl}octahydropyrazino[2,1-c][1,4]oxazin-3-yl]-3,4-dihydro-1H-isochromen-1-one], the IC50 under setting [1] turned out to be 0.16 µM.

As to `Cc1c([C@H]2CN3CCN(C(=O)Cc4ccc(-n5cnnn5)cn4)C[C@@H]3CO2)ccc(F)c1C#N` [Example 31, 6-fluoro-2-methyl-3-[(3S,9aR)-8-{[5-(1H-tetrazol-1-yl)pyridin-2-yl]acetyl}octahydropyrazino[2,1-c][1,4]oxazin-3-yl]benzonitrile], the IC50 under setting [1] is 0.16 µM.

For `Cc1c([C@@H]2CN3CCN(C(=O)Cc4ccc(-n5cnnn5)cn4)C[C@@H]3CO2)ccc(F)c1C#N` [Example 32, 6-fluoro-2-methyl-3-[(3R,9aR)-8-{[5-(1H-tetrazol-1-yl)pyridin-2-yl]acetyl}octahydropyrazino[2,1-c][1,4]oxazin-3-yl]benzonitrile], 0.08 µM corresponded to half-maximal inhibition (Thallium Flux IC50) (IC50).

As to `COc1cc([C@H]2CN3CCN(C(=O)Cc4ccc(-n5cnnn5)nc4)C[C@@H]3CO2)ccc1C#N` [Example 39, 2-methoxy-4-[(3S,9aR)-8-{[6-(1H-tetrazol-1-yl)pyridin-3-yl]acetyl}octahydropyrazino[2,1-c][1,4]oxazin-3-yl]benzonitrile], the IC50 under setting [1] was 0.26 µM.

For `COc1cc([C@@H]2CN3CCN(C(=O)Cc4ccc(-n5cnnn5)nc4)C[C@@H]3CO2)ccc1C#N` [Example 40, 2-methoxy-4-[(3R,9aR)-8-{[6-(1H-tetrazol-1-yl)pyridin-3-yl]acetyl}octahydropyrazino[2,1-c][1,4]oxazin-3-yl]benzonitrile], the half-maximal inhibitory concentration (IC50) under setting [1] stood at 0.07 µM.

For `COc1cc([C@@H]2CN3CCN(C(=O)Cc4ccc(-n5cnnn5)nc4)C[C@H]3CO2)ccc1C#N` [Example 41, 2-methoxy-4-[(3R,9aS)-8-{[6-(1H-tetrazol-1-yl)pyridin-3-yl]acetyl}octahydropyrazino[2,1-c][1,4]oxazin-3-yl]benzonitrile], under setting [1], the IC50 worked out at 0.23 µM.

The compound `Cc1cc(-n2cnnn2)ncc1CC(=O)N1CCN2C[C@H](c3ccc4c(c3C)COC4=O)OC[C@@H]2C1` [Example 42, 4-methyl-5-[(3S,9aS)-8-{[4-methyl-6-(1H-tetrazol-1-yl)pyridin-3-yl]acety}octahydropyrazino[2,1-c][1,4]oxazin-3-yl]-2-benzofuran-1(3H)-one] yielded an IC50 (Thallium Flux IC50) of 0.21 µM.

In turn, `Cc1cc(-n2cnnn2)ncc1CC(=O)N1CCN2C[C@H](c3ccc(F)c(C#N)c3C)OC[C@@H]2C1` [Example 43, 6-fluoro-2-methyl-3-[(3S,9aS)-8-{[4-methyl-6-(1H-tetrazol-1-vl)pvridin-3-yl]acetyl}octahydropyrazino[2,1-c][1,4]oxazin-3-yl]benzonitrile] registered an IC50 (Thallium Flux IC50) of 0.09 µM.

Regarding `Cc1cc(-n2cnnn2)ncc1CC(=O)N1CCN2C[C@@H](c3ccc4c(c3)CCOC4=O)OC[C@@H]2C1` [Example 44, 6-[(3R,9aS)-8-{[4-methyl-6-(1H-tetrazol-1-yl)pyridin-3-yl]acetyl}octahydropyrazino[2,1-c][1,4]oxazin-3-yl]-3,4-dihydro-1H-isochromen-1-one], under setting [1], the IC50 was 0.17 µM.

Regarding `COc1cc([C@@H]2CN3CCN(C(=O)Cc4cnc(-n5cnnn5)cc4C)C[C@@H]3CO2)ccc1C#N` [Example 45, 2-methoxy-4-[(3R,9aR)-8-{[4-methyl-6-(1H-tetrazol-1-vl)pvridin-3-yl]acetyl}octahydropyrazino[2,1-c][1,4]oxazin-3-yl]benzonitrile], the IC50 under setting [1] was found to be 0.25 µM.

Consider `O=C1OCc2c1ccc([C@@H]1CN3CCN(C(=O)Cc4ccc(-n5cnnn5)nc4)C[C@H]3CO1)c2Cl` [Example 46, 4-chloro-5-[(3R,9aS)-8-{[6-(1H-tetrazol-1-yl)pyridin-3-yl]acetyl}octahydropyrazino[2,1-c][1,4]oxazin-3-yl]-2-benzofuran-1(3H)-one], for which, under “Thallium Flux IC50”, inhibition was half-maximal at 0.67 µM (IC50).

As to `O=C1OCc2c1ccc([C@H]1CN3CCN(C(=O)Cc4ccc(-n5cnnn5)nc4)C[C@H]3CO1)c2Cl` [Example 47, 4-chloro-5-[(3S,9aS)-8-{[6-(1H-tetrazol-1-yl)pyridin-3-yl]acetyl}octahydropyrazino[2,1-c][1,4]oxazin-3-yl]-2-benzofuran-1(3H)-one], under “Thallium Flux IC50”, half-maximal inhibition (IC50) was put at 0.09 µM.

As for `O=C1OCc2c1ccc([C@H]1CN3CCN(C(=O)Cc4ccc(-n5cnnn5)nc4)C[C@H]3CO1)c2Br` [Example 48, 4-bromo-5-[(3S,9aS)-8-{[6-(1H-tetrazol-1-yl)pyridin-3-yl]acetyl}octahydropyrazino[2,1-c][1,4]oxazin-3-yl]-2-benzofuran-1(3H)-one], the IC50 under setting [1] was determined as 0.15 µM.

With `COc1ccc([C@H]2CN3CCN(C(=O)Cc4ccc(-n5cnnn5)nc4)C[C@H]3CO2)c(C)c1C#N` [Example 49, 6-methoxy-2-methyl-3-[(3S,9aS)-8-{[6-(1H-tetrazol-1-vl)pvridin-3-yl]acetyl}octahydropyrazino[2,1-c][1,4]oxazin-3-yl]benzonitrile], half-maximal inhibition (Thallium Flux IC50) (IC50) was put at 0.29 µM.

As for `N#Cc1c(F)ccc([C@@H]2CN3CCN(C(=O)Cc4ccc(-n5cnnn5)nc4)C[C@H]3CO2)c1Cl` [Example 51, 2-chloro-6-fluoro-3-[(3R,9aS)-8-{[6-(1H-tetrazol-1-yl)pyridin-3-yl]acetyl}octahydropyrazino[2,1-c][1,4]oxazin-3-yl]benzonitrile], the IC50 under setting [1] was 0.05 µM.

For the origin of these results see patent publication EP2790511B1 (Merck Sharp & Dohme Corp., priority 2011, dated 2013).
